In US10172355B2, “Safened herbicidal compositions including 4-amino-3-chloro-5-fluoro-6-(4-chloro-2-fluoro-3-methoxyphenyl)pyridine-2-carboxylic acid or a derivative thereof for use in rice” (Dow AgroSciences LLC, priority 2012, dated 2019):

Tested on: ECHCG=Echinochloa crus-galli
Experiment: In-water applied herbicides in paddy, visual injury of weed
Format: in vivo
Protocol: Weed seeds or nutlets of the desired test plant species were planted in puddled soil (mud) prepared by mixing a shredded, non-sterilized mineral soil (50.5 percent silt, 25.5 percent clay, and 24 percent sand, with a pH of about 7.6 and an organic matter content of about 2.9 percent) and water at a 1:1 volumetric ratio. The prepared mud was dispensed in 365 mL aliquots into 16-ounce (oz.) non-perforated plastic pots with a surface area of 86.59 square centimeters (cm^2) leaving a headspace of 3 centimeters (cm) in each pot. Rice seeds were planted in Sun Gro MetroMix® 306 planting mixture, which typically has a pH of 6.0 to 6.8 and an organic matter content of about 30 percent, in plastic plug trays. Seedlings at the second or third leaf stage of growth were transplanted into 860 mL of mud contained in 32-oz. non-perforated plastic pots with a surface area of 86.59 cm^2 4 days prior to herbicide application. The paddy was created by filling the headspace of the pots with 2.5 to 3 cm of water. When required to ensure good germination and healthy plants, a fungicide treatment and/or other chemical or physical treatment was applied. The plants were grown for 4-22 days in a greenhouse with an approximate 14 h photoperiod which was maintained at about 29′C during the day and about 26° C. during the night. Nutrients were added as Osmocote® (17:6:10, N:P:K+minor nutrients) at 2 g per 16-oz. pot and 4 g per 32-oz. pot. Water was added on a regular basis to maintain the paddy flood, and supplemental lighting was provided with overhead metal halide 1000-Watt lamps as necessary. The plants were employed for testing when they reached the second or third true leaf stage.
Treatments consisted of the acid or esters of 4-amino-3-chloro-5-fluoro-6-(4-chloro-2-fluoro-3-methoxy-phenyl)pyridine-2-carboxylic acid (compound A) and various safeners alone and in combination. Forms of compound A were applied on an acid equivalent basis. Safener components were applied on an active ingredient or acid equivalent basis depending on the compound.
Treatment requirements for each compound or herbicidal component were calculated based upon the rates being tested, the concentration of active ingredient or acid equivalent in the formulation, an application volume of 2 mL per component per pot, and an application area of 86.59 cm^2 per pot.
For formulated compounds, a measured amount was placed in an individual 100 or 200 mL glass vial and was dissolved in a volume of 1.25% (v/v) Agri-Dex® crop oil concentrate to obtain application solutions.
For technical grade compounds, a weighed amount can be placed in an individual 100 to 200 mL glass vial and dissolved in a volume of acetone to obtain concentrated stock solutions. […] The concentrated stock solutions obtained can be diluted with an equivalent volume of an aqueous mixture containing 2.5% (v/v) crop oil concentrate so that the final application solutions contain 1.25% (v/v) crop oil concentrate.
Applications were made by injecting with a pipetter appropriate amounts of the application solutions, individually and sequentially, into the aqueous layer of the paddy. Control plants were treated in the same manner with the solvent blank. Applications were made so that all treated plant material received the same concentrations of acetone and crop oil concentrate.
The treated plants and control plants were placed in a greenhouse as described above and water was added as needed to maintain a paddy flood. After approximately 3 weeks the condition of the test plants as compared with that of the untreated plants was determined visually and scored on a scale of 0 to 100 percent where 0 corresponds to no injury or growth inhibition and 100 corresponds to complete kill.
Some of the safener-herbicide combinations tested, application rates and ratios employed, plant species tested, and results are given in Tables 16-17. […]

SMILES | Mean Visual Injury (%) - 21 DAA ECHCG (8.75 g ae/ha) [%] | Mean Visual Injury (%) - 21 DAA ECHCG (17.5 g ae/ha) [%] | Mean Visual Injury (%) - 21 DAA ECHCG (35 g ae/ha) [%] | Mean Visual Injury (%) - 21 DAA ECHCG (70 g ae/ha) [%] | Mean Visual Injury (%) - 21 DAA ECHCG (140 g ae/ha) [%]
COc1c(Cl)ccc(-c2nc(C(=O)O)c(Cl)c(N)c2F)c1F [Acid, 4-amino-3-chloro-6-(4-chloro-2-fluoro-3-methoxyphenyl)-5-fluoropyridine-2-carboxylic acid] | 0 | 0 | 10 | 63 | 95
COc1c(Cl)ccc(-c2nc(C(=O)OCc3ccccc3)c(Cl)c(N)c2F)c1F [Benzyl] | 23 | 43 | 81 | 100 | 100
